According to patent publication US20080318876A1, “Use of Ginsenosides in the Treatment of Aids” (priority 2004, published 2008):
Like-named read-outs stand apart in the source and are kept apart here. Values belong to the compound of their own block, whether it stands above or below them.

Columns and labels:
HIV-1 in Hela-CD4 cells = experiment: Combination medication JHR and AZT (MAGI test); assay type: cell-based
Method: Method: For the experiment, the MAGI test method was adopted (the same as above).
(A) Single-agent medication: five doses of AZT were used in amount of from 1 μM to 3.9 nM, and were designated AZT1-5, five doses of JHR were designated in amount of 400 ug/ml to 1.56 ug/ml, and IC50 were obtained respectively.
Half dosage of AZT was combined with half dosage of JHR-1 as one sample. AZT1 was combined respectively with any of JHR1-JHR5; Each of AZT2, AZT3, AZT4, AZT5 was respectively combined with any of […]. So a total of 25 concentration combinations could be used. Each concentration was set in duplicate wells (2 wells). Additional group was taken as cell and virus controls.
(C) Comparing each drug combination with the virus group to have the inhibition rate. The inhibition rate of each drug combination was compared with the sole AZT IC50 to obtain the difference of functions each other.

[1] = test system: HIV-1 (single-life-cycle reporter HIV) in Hela-CD4-LTR-gal cells; experiment: Inhibition of HIV-1 replication in HeLa-CD4 cells (MAGI test); assay type: cell-based; settings: for inhibition at 200 µg/mL: Human immunodeficiency virus 1, MAGI, read-out: Inhibition Rate (0.2 mg/ml)
Method: Three types of cells (such as MT4, Hela-CD4, PBMC) were infected respectively with HIV-1 virus for observation of the inhibiting effects of ginseng composition (JHR) prepared in Example 1 upon the HIV-1 replication.
Virus: Single-life-cycle reporter HIV was acquired by transfection with HIV plasmids.
Method: Hela-CD4-LTR-gal cell was inoculated into a 24-well plate at 0.4×10^5/well and cultured for 24 hours and let the cells absorb and adhere to the wall. On the second day, the supernatants were sucked away from the wells and 100 μl drug (drug control) or drug (drug solutions with different concentrations) and HIV-1 or culture medium (Mock) were added. After 2 hours, 200 μl of identical drug solutions or culture medium was added into each well for culturing at 37° C. in a CO2 incubator for 48 hours and detecting by the following method.
Fixation: The supernatants were sucked away from each well and adding the fixative solution (1 ml), and then by staining with K4[Fe(CN)6].3H2O, K3[Fe(CN)6] and X-gel.
Counting: For the blue cell counts (BCC) within each well, the following formula is used to calculate the IR and then IC50.
The same method as that in example 1 is applied, except that the drug added into the wells is Ginsenoside monomer, and the concentration thereof is listed in table 3.

gp41 protein = gp41 protein (Human immunodeficiency virus type 1 group M subtype B, UniProt P03375); experiment: BIACORE binding to gp41 protein; settings: BIACORE chip, genetically recombined gp41; conjugation to gp41 stronger than to gp120
Text: The genetically recombined gp41, gp120 were placed on the chip of BIACORE analyzer, respectively, after adding a certain concentration of Rb3 in sufficient amount, the instrument could detect whether or not there was a binding.

[2] = test system: HIV single life cycle model; experiment: Viral life cycle stage targeted: dosing at different times post-infection (single life cycle model, MAGI or Luciferase); assay type: cell-based
gp120 protein = target: T1, gp120 protein (Human immunodeficiency virus type 1 group M subtype B, UniProt P03375); assay type: binding; settings: BIACORE chip, genetically recombined gp120
T1 construct: The genetically recombined gp41, gp120 were placed on the chip of BIACORE analyzer

- EC50 (HIV-1 in Hela-CD4 cells; AZT alone or AZT combined with JHR dose 1-5, MAGI test, read-out: ED50 (the source's name)): 46 nM
- IC50 (HIV-1 in Hela-CD4 cells; AZT alone, read-out: IC50 of AZT alone): 46 nM
- IC50 (HIV-1 in Hela-CD4 cells; combined with the first dose of JHR, read-out: IC50 of AZT after combining with the first dose of JHR): 5.8 nM
SMILES: Cc1cn([C@H]2C[C@H](N=[N+]=[N-])[C@@H](CO)O2)c(=O)[nH]c1=O [AZT]

SMILES: CC(C)=CCC[C@](C)(OC1OC(COC2OC(CO)C(O)C2O)C(O)C(O)C1O)[C@H]1CC[C@]2(C)[C@@H]1[C@H](O)C[C@@H]1[C@@]3(C)CC[C@H](OC4OC(CO)C(O)C(O)C4OC4OC(CO)C(O)C(O)C4O)C(C)(C)[C@@H]3CC[C@]12C (stereo partly shown) [Rc]
- inhibition at 200 µg/mL [1]: 60.7%

SMILES: CC(C)=CCC[C@](C)(O[C@@H]1O[C@H](CO[C@@H]2OC[C@@H](O)[C@H](O)[C@H]2O)[C@@H](O)[C@H](O)[C@H]1O)[C@H]1CC[C@]2(C)[C@@H]1[C@H](O)C[C@@H]1[C@@]3(C)CC[C@H](O[C@@H]4O[C@H](CO)[C@@H](O)[C@H](O)[C@H]4O[C@@H]4O[C@H](CO)[C@@H](O)[C@H](O)[C@H]4O)C(C)(C)[C@@H]3CC[C@]12C [Rb3]
- binding to gp41 protein (gp41 protein): can bind
- Inhibition rate (%) ([2]; dosing 2 hours post-infection): 83.98%
- Inhibition rate (%) ([2]; dosing 10 hours post-infection): 0%
- Inhibition rate (%) ([2]; dosing 29 hours post-infection): 0%
- Inhibition Rate (0.2 mg/ml) ([1]; Hela-CD4 cell strain, 0.2 mg/ml): 70.68%
- Inhibition Rate (0.4 mg/ml) ([1]; Hela-CD4 cell strain, 0.4 mg/ml): 97.9%
- binding to gp120 protein (gp120 protein): can bind

SMILES: CC(C)=CCC[C@](C)(OC1OC(COC2OC(CO)C(O)C(O)C2O)C(O)C(O)C1O)[C@H]1CC[C@]2(C)[C@@H]1[C@H](O)C[C@@H]1[C@@]3(C)CC[C@H](OC4OC(CO)C(O)C(O)C4OC4OC(CO)C(O)C(O)C4O)C(C)(C)[C@@H]3CC[C@]12C (stereo partly shown) [Rb1]
- inhibition at 200 µg/mL [1]: 41.9%

SMILES: CC(C)=CCC[C@](C)(OC1OC(COC2OCC(O)C(O)C2O)C(O)C(O)C1O)[C@H]1CC[C@]2(C)[C@@H]1[C@H](O)C[C@@H]1[C@@]3(C)CC[C@H](OC4OC(CO)C(O)C(O)C4OC4OC(CO)C(O)C(O)C4O)C(C)(C)[C@@H]3CC[C@]12C (stereo partly shown) [Rb2]
- inhibition at 200 µg/mL [1]: 42.9%
